test system: diploidem Roggen; test: Field test of gametocidal activity (sterilisation of anthers), diploid rye; type: in vivo; conditions: Sorte Gibrid 1861/79; V. und VI. Periode der Organogenese; 1%ige wäßrige Emulsion; 8 kg/ha
Text: (§1) Die gametozide Aktivitat der erfindungsgemäßen Sterilisationsmittel war im Feldversuch in verschiedenen bodenklimatischen Zonen mit Teilstücken von 10 m^2 Größe in drei- bis viermaliger Wiederholung festgestellt. Jedes Sterilisationsmittel wurde mindenstens 5 Jahre lang geprüft.
(§2) Die Entwicklung der Perioden der Organogenese wird zytologisch überwacht. Die Behandlung von Pflanzen mit dem Sterilisationsmittel erfolgt am Anfang der fünften Periode der Organogenese nach Kupermann.
(§3) Mit dem Ährenschieben verwirklicht man die Isolierung von Hauptähren und anderen Stockwerken in Pergamentbeuteln. Bei Weizen und Tritikale werden Einzelisolatoren benutzt. Bei Roggen schließt man je Ähre 5 bis 7 verschiedene nebeneinander befindliche Pflanzen unter einen gemeinsamen Isolator ein. Bei Hierse wird jede Rispe getrennt isoliert. Der Sterilitätsprozentsatz (X) für Weizen, Roggen, Tritikale und Hirse wird nach der Formel [formula] ermittelt.
(§4) Die Kornzahl in nicht isolierten Ähren von Kontrollpflanzen wird bedingt für 100 % Ansetzen bei freier Bestäubung angenommen.
(§5) Um zuverlässige Angaben zu erhalten, verwendet man 20 bis 25 Isolatoren jeder Wiederholung für Weizen und Tritikale, 10 .bis 15 Isolatoren jeder Wiederholung für Roggen und Hirse.
Pflanzen von diploidem Roggen Sorte Wosohod 2 werden in der V. Periode der Organogenese (nach Kupermann) mit 1%iger wäßriger Emulsion von Bis(di-n-butyläther) der δ, δ' -Thiodivaleriansäure, 4-Krboxybutyldezylsulfid, Natriumsalz der δ, δ' -Thiodivaleriansäure, Bis(2-äthylhexyläther) der δ, δ' -Thiodivaleriansäure, δ, δ' -Sulfonyldivaleriansäure, Natriumsalz der δ, δ'-Sulfonyldivaleriansäure, Kaliumsalz der δ, δ' -Sulfonyldivaleriansäure behandelt. Die Emulsion enthält 0,1 Masse% […] mit 12 bis 14 Kohlenstoffatomen und 0,01 Masse% Tetrahydrofuran. Der Verbrauch an Präparat beträgt 6 kg/ha. Als Kontrolle dienen Pflanzen, behandelt mit einem Verdünner ohne Sterilisationsmittel.
Pflanzen von diploidem Roggen Sorte Gibrid 1861/79 werden in der V. und VI. Periode der Organogenese (nach Kupermann) mit 1%iger wäßriger Emulsion von Bis(di-n-butyläther) der δ, δ' -Thiodivaleriansäure, δ, δ' -Thiodivaleriansäure, Natriumsalz der δ δ' -Thiodivaleriansäure, 4-Karboxybutyldezylsulfid, δ , δ' -Sulfonyldivaleriansäure, Kaliumsalz der δ, δ' -Sulfonyldivaleriansäuleriansäure, Kaliumalz der δ' -Sulfonyldivaleriansäure, Bis(2-äthylhexyläther) der δ, δ' -Thiodivaleriansäure behandelt. Die Emulsion enthält 0,1 Masse% Kalziumalkylbenzolsulfonat mit 12 bis 14 Kohlenstoffatomen und 0,01 Masse% Dimethylformamid. Der Verbrauch an Präparat beträgt 8 kg/ha. Als Kontrolle dienen Pflanzen, behandelt mit einem Verdünner ohne Sterilisationsmittel. Die Prüfergebnisse sind in der Tabelle 10 angegeben.

Molecule	Anzahl von Körnern der Ähre bei freier Bestäubung	Anzahl von Körnern der Ähre im Isolator	Prozentsatz der Sterilität	Prozentsatz des Ansetzens von Körnern bei freier Bestäubung
CCCCOC(=O)CCCCSCCCCC(=O)OCCCC [Beispiel 44, Bis(di-n-butyläther) der δ, δ' -Thiodivaleriansäure]	60,0	0,0	100,0%	95,5%
O=C(O)CCCCSCCCCC(=O)O [Beispiel 45, δ, δ' -Thiodivaleriansäure]	58,6	0,1	99,8%	93,3%
O=C(O)CCCCSCCCCC(=O)O [Beispiel 46, Natriumsalz der δ δ' -Thiodivaleriansäure]	57,1	0,1	99,8%	90,9%
CCCCCCCCCCSCCCCC(=O)O [Beispiel 47, 4-Karboxybutyldezylsulfid]	52,8	0,0	100,0%	84,1%
O=C(O)CCCCS(=O)(=O)CCCCC(=O)O [Beispiel 48, δ , δ' -Sulfonyldivaleriansäure]	54,7	0,0	100,0%	87,1%
O=C(O)CCCCS(=O)(=O)CCCCC(=O)O [Beispiel 49, Kaliumsalz der δ, δ' -Sulfonyldivaleriansäuleriansäure]	57,0	0,0	100,0%	90,8%
CCCCC(CC)COC(=O)CCCCSCCCCC(=O)OCC(CC)CCCC (stereo not shown) [Beispiel 50, Bis(2-äthylhexyläther) der δ, δ' -Thiodivaleriansäure]	53,2	0,0	100,0%	84,7%

same assay, conditions: Sorte Wosohod 2; V. Periode der Organogenese; 1%ige wäßrige Emulsion; 6 kg/ha

Molecule	Anzahl von Körnern der Ähre bei freier Bestäubung	Anzahl von Körnern der Ähre im Isolator	Prozentsatz der Sterilität	Prozentsatz des Ansetzens von Körnern bei freier Bestäubung
O=C(O)CCCCS(=O)(=O)CCCCC(=O)O [Beispiel 42, Natriumsalz der δ, δ'-Sulfonyldivaleriansäure]	47,4	0,1	99,8%	86,8%
O=C(O)CCCCS(=O)(=O)CCCCC(=O)O [Beispiel 43, Kaliumsalz der δ, δ' -Sulfonyldivaleriansäure]	53,8	0,6	98,8%	98,5%

test system: Hirse; test: Field test of gametocidal activity (sterilisation of anthers), millet; type: in vivo; conditions: Sorte K9009, Poltawskaja oblast; V. Periode der Organogenese; 1%ige wäßrige Emulsion; 6 kg/ha
Text: as §1, §2, §3, §4, §5
Pflanzen der Hirse Sorte Mironowskoe 94 werden in der V. Periode der Organogenese (nach Kupermann) mit 1%iger wäßriger Emulsion von 4-Karboxybutyldezylsulfid, δ, δ' -Sulfonyldivaleriansäure, Bis(2-äthylhexyläther) der δ, δ' -Thiodivaleriansäure behandelt. Die Emulsion enthält 0,1 Masse% Kalziumalkylbenzolsulfonat mit 12 bis 14 Kohlenstoffatomen und 0,01 Masse% Dodezylsulfat. Der Verbrauch an Präparat beträgt 10 kg/ha. Als Kontrolle dienen Pflanzen, behandelt mit einem Verdünner ohne Sterilieationsmittel. Die Prüfergebnisse sind in der Tabelle 14 angegeben. […] Periode der Organogenese erhalten.
Pflanzen der Hirse Sorte K9009, Poltawskaja oblast (Poltawaer Gebiet) werden in der V.Periode der Organogenese (nach Kupermann) mit 1%iger wäßriger Emulsion von δ, δ' Thiodivaleriansäure, Natriumsälz der δ, δ'- -Thiodivaleriansäure, δ, δ' -Sulfonyldivaleriansäure, Bis([…]) der d, δ' -Thiodivaleriansäure, 4-Karboxybutyldezylsulfid behandelt. Die Emulsion enthält 0,1 Masse% Kalziumalkylbenzolsulfonat mit 12 bis 14 Kohlenstoffatomen und 0,01 Masse% Tetrahydrofuran, Der Verbrauch an Präparat beträgt 6 kg/ha. Als Kontrolle dienen . Pflanzen, behandelt mit einem Verdünner ohne Sterilisationsmittel. Die Prüfergebnisse sind in der Tabelle 15 angegeben. […] Periode der Organogenese erhalten.
Pflanzen der Hirse Sorte K-9693 Kormowoe 1 werden in der V. Periode der Organogenese (nach Kupermann) mit l%iger wäßriger Emulsion von Bis(di-n-butyläther) der δ, δ' -Thiodivaleriansäure, Natriumsalz der δ, δ' -Sulfonyldivaleriansäure behandelt. Der Verbrauch an Präparat beträgt 6 kg/ha. Als Kontrolle dienen Pflanzen, behandelt mit einem Verdünner ohne Sterilisationsmittel. Die Prüfergebnisse sind in der Tabelle 16 angegeben. […] Periode der Organogenese erhalten.

Molecule	Anzahl von Körnern der Rispe bei freier Bestäubung	Anzahl von Körnern der Rispe im Isolator	Prozentsatz der Sterilität	Prozentsatz des Ansetzens von Körnern bei freier Bestäubung
O=C(O)CCCCSCCCCC(=O)O [Beispiel 68, δ, δ' Thiodivaleriansäure]	101,4	0,0	100,0%	78,1%
O=C([O-])CCCCSCCCCC(=O)[O-].[Na+].[Na+] [Beispiel 69, Natriumsälz der δ, δ'- -Thiodivaleriansäure]	105,1	0,0	100,0%	81,2%
O=C(O)CCCCS(=O)(=O)CCCCC(=O)O [Beispiel 70, δ, δ' -Sulfonyldivaleriansäure]	77,1	0,0	100,0%	60,0%
CCOCCOC(=O)CCCCSCCCCC(=O)OCCOCC [Beispiel 71, Bis(2-äthylglykoläther) der d, δ' -Thiodivaleriansäure]	112,0	0,0	100,0%	86,6%
CCCCCCCCCCSCCCCC(=O)O [Beispiel 72, 4-Karboxybutyldezylsulfid]	100,7	0,0	100,0%	77,8%

same assay, conditions: Sorte K-9693 Kormowoe 1; V. Periode der Organogenese; 1%ige wäßrige Emulsion; 6 kg/ha

Molecule	Anzahl von Körnern der Rispe bei freier Bestäubung	Anzahl von Körnern der Rispe im Isolator	Prozentsatz der Sterilität	Prozentsatz des Ansetzens von Körnern bei freier Bestäubung
O=C([O-])CCCCS(=O)(=O)CCCCC(=O)[O-].[Na+].[Na+] [Beispiel 74, Natriumsalz der δ, δ' -Sulfonyldivaleriansäure]	103,5	0,0	100,0%	70,5%
Bis(di-n-butyläther) der δ, δ' -Thiodivaleriansäure [Beispiel 73]	122,1	0,0	100,0%	83,2%

same assay, conditions: Sorte Mironowskoe 94; V. Periode der Organogenese; 1%ige wäßrige Emulsion; 10 kg/ha

Molecule	Anzahl von Körnern der Rispe bei freier Bestäubung	Anzahl von Körnern der Rispe im Isolator	Prozentsatz der Sterilität	Prozentsatz des Ansetzens von Körnern bei freier Bestäubung
CCCCCCCCCCSCCCCC(=O)O [Beispiel 65, 4-Karboxybutyldezylsulfid]	323,7	0,0	100,0%	88,3%
O=C(O)CCCCS(=O)(=O)CCCCC(=O)O [Beispiel 66, δ, δ' -Sulfonyldivaleriansäure]	336,8	0,0	100,0%	91,9%
CCCCC(CC)COC(=O)CCCCSCCCCC(=O)OCC(CC)CCCC (stereo not shown) [Beispiel 67, Bis(2-äthylhexyläther) der δ, δ' -Thiodivaleriansäure]	312,8	0,0	100,0%	85,3%

— patent EP0362382A1, “METHOD OF STERILIZING PLANT POLLEN” (VSESOJUZNY NAUCHNO-ISSLEDOVATELSKY INST. SELSKOKHOZYAISTV. …, priority 1988, dated 1989)
